Literature values as cited in patent publication US7189385B2, “Tooth whitening compositions” (Discus Dental Impressions, Inc., priority 1997, dated 2007).

Conditions: listed as GRAS, 21 CFR 184.1901

CC(=O)OCC(COC(C)=O)OC(C)=O [Glyceryl triacetate]
toxicity: extremely low order of toxicity
